From patent US9402827B2, “Treatment of gout” (ARDEA BIOSCIENCES, INC., priority 2010, dated 2016)

Tests used:
IL-1β = assay: Effect on IL-1β release after stimulation with ATP or MSU crystals (Example 1, FIG. 1); format: cell-based; details: within 1 hour of stimulation with ATP (5 mM) or 1 μg MSU crystals
Experimental: FIG. 1 illustrates the effect of Lesinurad on IL-1β release within 1 hour of stimulation with ATP (5 mM) or 1 μg MSU (monosodium urate) crystals (compd1=Lesinurad; C-1inh=caspase-1 inhibitor).
Activation of the inflammasome results in the release of preformed IL-1, which goes on to activate other targets as well as increase the production of IL-1 itself.

[1] = system: monosodium urate crystal-induced inflammatory response; assay: Rat air pouch model of crystal-induced arthropathy (Example 3A); format: in vivo, Sprague-Dawley rats; details: Lesinurad 10, 30 and 100 mg/kg PO; MSU 150 mg; FIG. 5
Experimental: Procedure • 1. […] NaOH was added as required to maintain pH 8-9. The solution was filtered and incubated at ambient with slow stirring continuously for 24 hours. • b. Crystals were washed, dried and sterilized by autoclaving. • c. […] The rats were anesthetized and bled for sample from retro-orbital sinus into microtainer tubes. • a. The blood was processed to serum; • b. The serum was transferred to labeled Eppendorf tubes (T=0) and stored at −80° C. • c. […] DAY 0: The rats are anesthetized. • a. The nape of the neck was shaved, cleansed with 70% isopropanol followed by cleansing with Povidone. • b. A 23-gauge needle was attached to a 30 ml syringe fitted with an air filter. • c. 30 ml of sterile air was injected subcutaneously and the rat returned to routine maintenance. • 7. DAY 3: Steps 6a) through 6c) were repeated. • 8. […] Exudates volume was measured and recorded for each animal. • a. […] Mean cell counts and standard deviations were determined for each group. • b. Mean optical absorbance measurements and standard deviations were determined for each group. • c. Group means and standard deviations for TNF-alpha and IL-1 were determined for each group. • d. Statistical significance of treatments on mean cell counts, mean optical absorbance measurements and mean cytokine measurements were determined by comparison of means for treatment and positive control groups with vehicle group.

gout flares [2] = assay: Phase II clinical trial, gout dose response study: incidence of gout flares (Example 4); format: in vivo, human
Experimental: Purpose: To compare the proportion of subjects whose serum urate (sUA) level is <6.0 mg/dL after 28 days of dosing by treatment group. Official Title: Randomized, Double-Blind, Multicenter, Placebo-Controlled, Safety and Efficacy Study of Lesinurad Versus Placebo in the Treatment of Hyperuricemia in Patients With Gout Experimental dosage form: 200 mg capsule of Lesinurad, with appropriate pharmaceutically acceptable excipients Design: • Control: Placebo Control • Endpoint Classification: Safety/Efficacy Study • Intervention Model: Parallel Assignment • Masking: Double Blind (Subject, Caregiver, Investigator, Outcomes Assessor) • Primary Purpose: Treatment Primary Outcome Measures: Compare the proportion of subjects whose serum urate (sUA) level is <6.0 mg/dL after 28 days of dosing by treatment group. […] [table] Inclusion Criteria: • Male or post-menopausal or surgically sterile female. • Hyperuricemic (i.e., screening sUA≧8 mg/dL). • Meets criteria for the diagnosis of gout as per the American Rheumatism Association (ARA) Criteria for the Classification of Acute Arthritis of Primary Gout (see Appendix B). • Willing and able to give informed consent and adhere to visit/protocol schedules (informed consent must be given before the first study procedure is performed).

gout flares [3] = assay: Phase II clinical trial in gout patients with hyperuricemia: time to first flare, flare rate (Example 5); format: in vivo, human; details: for 4 Wk % Flare (percent of patients experiencing at least one gout flare by week 4): based on ITT patient number, colchicine prophylaxis; for Time to First Flare (cumulative flare rate), Day 0 / Time to First Flare (cumulative flare rate), Day 7 / Time to First Flare (cumulative flare rate), Day 14 / Time to First Flare (cumulative flare rate), Day 21 / Time to First Flare (cumulative flare rate), Day 28: colchicine prophylaxis 0.5-0.6 mg QD
Experimental: A phase II clinical trial including 123 gout patients with hyperuricemia (serum uric acid ≧8 mg/dL) in 4 treatment arms was conducted. The trail lasted 8 weeks, comprising a 2 week run in period, 4 week treatment period and 2 week follow-up.
Patients were randomly assigned to arms 1, 2, 3 or 4 and orally administered Lesinurad according to Table 9 below and FIG. 8; all received colchicine prophylaxis (0.5-0.6 mg QD) for 2 weeks prior to Lesinurad dosing and throughout the 4 week treatment period.

[4] = Arm 2 (200 mg week 1, 400 mg weeks 2-4)
[5] = Arm 3 (200 mg week 1, 400 mg week 2, 600 mg weeks 3-4)

With O=C(O)CSc1nnc(Br)n1-c1ccc(C2CC2)c2ccccc12 [Lesinurad, 2-(5-bromo-4-(4-cyclopropylnaphthalen-1-yl)-4H-1,2,4-triazol-3-ylthio)acetic acid] the IL-1 release (IL-1β) was “blocks IL-1 release very early”, the “monosodium urate crystal-induced inflammatory response (total white blood cell counts)” value [1] was “blocked” and the “Mean Duration of Flares (by dose at time of flare)” value (gout flares [2]; 200 mg at time of flare) was 4 days. For the same molecule, the “% of patients with Flares by Dose at Time of Flare” value (gout flares [2]; 200 mg at time of flare (6/96)) was 6% (6/96), the “Mean Duration of Flares (by dose at time of flare)” value (gout flares [2]; 400 mg at time of flare) was 2 days and the “% of patients with Flares by Dose at Time of Flare” value (gout flares [2]; 600 mg at time of flare (3/32)) was 9% (3/32). For the same molecule, the “Mean Duration of Flares” value (gout flares [2]; Randomized dose group 200 mg) was 4 days, the “% Patients with Flares” value (gout flares [2]; Randomized dose group 200 mg, N 31) was 6% and the “Mean Duration of Flares” value (gout flares [2]; Randomized dose group 400 mg) was 3.8 days. The “% Patients with Flares” value (gout flares [2]; Randomized dose group 600 mg, N 32) was 13%, the “4 Wk % Flare (percent of patients experiencing at least one gout flare by week 4)” value (gout flares [3]; Arm 1 (200 mg weeks 1-4)) was 10% and the “Time to First Flare (cumulative flare rate), Day 0” value (“Time to First Flare … Day 0” for short) (gout flares [3]; Arm 1 (200 mg weeks 1-4)) was 27. For the same molecule, the “Time to First Flare (cumulative flare rate), Day 7” value (from here on “Time to First Flare … Day 7”) (gout flares [3]; Arm 1 (200 mg weeks 1-4)) was 27, the “Time to First Flare (cumulative flare rate), Day 14” value (from here on “Time to First Flare … Day 14”) (gout flares [3]; Arm 1 (200 mg weeks 1-4)) was 26 and the “Time to First Flare (cumulative flare rate), Day 21” value (shortened to “Time to First Flare … Day 21”) (gout flares [3]; Arm 1 (200 mg weeks 1-4)) was 25. The “Time to First Flare (cumulative flare rate), Day 28” value (“Time to First Flare … Day 28” below) (gout flares [3]; Arm 1 (200 mg weeks 1-4)) was 25, the “4 Wk % Flare (percent of patients experiencing at least one gout flare by week 4)” value (gout flares [3]; [4]) was 12% and the “Time to First Flare … Day 0” value (gout flares [3]; [4]) was 31. For the same molecule, the “Time to First Flare … Day 7” value (gout flares [3]; [4]) was 31, the “Time to First Flare … Day 14” value (gout flares [3]; [4]) was 30 and the “Time to First Flare … Day 21” value (gout flares [3]; [4]) was 28. For the same molecule, the “Time to First Flare … Day 28” value (gout flares [3]; [4]) was 26, the “Time to First Flare … Day 0” value (gout flares [3]; [5]) was 33 and the “Time to First Flare … Day 7” value (gout flares [3]; [5]) was 31. The “Time to First Flare … Day 14” value (gout flares [3]; [5]) was 31, the “Time to First Flare … Day 21” value (gout flares [3]; [5]) was 29 and the “Time to First Flare … Day 28” value (gout flares [3]; [5]) was 29. For the same molecule, the “4 Wk % Flare (percent of patients experiencing at least one gout flare by week 4)” value (gout flares [3]; Arm 3 (200/400/600/600 mg)) was 13%.
